Assay results reported in the supplement of paper PMC10883282.
± gives the standard deviation of the averaged measurements.

Assays:
Experiment in all cases: relative viability vs DMSO control (72 h) (fraction); higher = more viable cells
[1] = test system: SW982
Summary of the method: (§1)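 Sarcoma cell lines were seeded in 384-well plates at densities set to reach 80–90% confluence. After 24 h, 2.5 µl of serially diluted compound was added (source plates 10 mM to 0.0002 mM), and plates were held 72 h at 37 °C, 5% CO2, with 0.1% DMSO vehicle and a 5 µM positive control. Relative viability came from ATPLite readings as percent growth, averaged over up to triplicate wells. Data were rescaled so full viability equals 1 and none equals 0.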

[2] = test system: G401
Summary of the method: as §1

[3] = test system: SYO-1
Summary of the method: as §1

[4] = test system: A204
Summary of the method: as §1

[5] = test system: SK-ES-1
Summary of the method: as §1

[6] = test system: SW872
Summary of the method: as §1

[7] = test system: SW1353
Summary of the method: as §1

[8] = test system: SW684
Summary of the method: as §1

[9] = test system: RD-ES
Summary of the method: as §1

[10] = test system: KHOS-240S
Summary of the method: as §1

[11] = test system: HT1080
Summary of the method: as §1

[12] = test system: KHOS-NP
Summary of the method: as §1

CCCCCCCCCCCCCCCCCCOP(=O)([O-])OC1CC[N+](C)(C)CC1 [Perifosine]
Settings	relative viability
[1], 0.00017 µM	1.02 ± 0.022
[1], 0.00051 µM	1.04 ± 0.031
[1], 0.00152 µM	1.06 ± 0.018
[1], 0.00457 µM	1.08 ± 0.018
[1], 0.01372 µM	1.1 ± 0.017
[1], 0.04115 µM	1.08 ± 0.034
[1], 0.1235 µM	1.1 ± 0.036
[1], 0.3704 µM	1.08 ± 0.033
[1], 1.111 µM	1.06 ± 0.035
[1], 3.333 µM	1.06 ± 0.047
[1], 10 µM	0.88 ± 0.026
[2], 0.00017 µM	1.057 ± 0.0047
[2], 0.00051 µM	1.06 ± 0.011
[2], 0.00152 µM	1.07 ± 0.0054
[2], 0.00457 µM	1.07 ± 0.018
[2], 0.01372 µM	1.06 ± 0.034
[2], 0.04115 µM	1.059 ± 0.0094
[2], 0.1235 µM	1.064 ± 0.0048
[2], 0.3704 µM	1.06 ± 0.019
[2], 1.111 µM	1.05 ± 0.028
[2], 3.333 µM	1.03 ± 0.011
[2], 10 µM	1.06 ± 0.023
[3], 0.00017 µM	1.01 ± 0.026
[3], 0.00051 µM	1.012 ± 0.01
[3], 0.00152 µM	0.99 ± 0.033
[3], 0.00457 µM	1.01 ± 0.046
[3], 0.01372 µM	0.977 ± 0.06
[3], 0.04115 µM	0.965 ± 0.084
[3], 0.1235 µM	0.97 ± 0.056
[3], 0.3704 µM	0.946 ± 0.051
[3], 1.111 µM	0.941 ± 0.057
[3], 3.333 µM	0.903 ± 0.042
[3], 10 µM	0.901 ± 0.059
[4], 0.00017 µM	1.05 ± 0.051
[4], 0.00051 µM	1.08 ± 0.022
[4], 0.00152 µM	1.07 ± 0.08
[4], 0.00457 µM	1.07 ± 0.032
[4], 0.01372 µM	1.06 ± 0.069
[4], 0.04115 µM	1.07 ± 0.061
[4], 0.1235 µM	1.08 ± 0.067
[4], 0.3704 µM	1.06 ± 0.087
[4], 1.111 µM	1.03 ± 0.087
[4], 3.333 µM	1.06 ± 0.086
[4], 10 µM	1.08 ± 0.096
[5], 0.00017 µM	1.08 ± 0.056
[5], 0.00051 µM	1.06 ± 0.021
[5], 0.00152 µM	1.07 ± 0.013
[5], 0.00457 µM	1.02 ± 0.013
[5], 0.01372 µM	0.975 ± 0.013
[5], 0.04115 µM	0.951 ± 0.033
[5], 0.1235 µM	1.05 ± 0.04
[5], 0.3704 µM	0.996 ± 0.015
[5], 1.111 µM	1.05 ± 0.029
[5], 3.333 µM	1.02 ± 0.024
[5], 10 µM	1.01 ± 0.041
[6], 0.00017 µM	1.07 ± 0.025
[6], 0.00051 µM	1.1 ± 0.016
[6], 0.00152 µM	1.05 ± 0.019
[6], 0.00457 µM	1.03 ± 0.017
[6], 0.01372 µM	0.986 ± 0.078
[6], 0.04115 µM	1.05 ± 0.055
[6], 0.1235 µM	1.04 ± 0.077
[6], 0.3704 µM	0.982 ± 0.028
[6], 1.111 µM	0.891 ± 0.033
[6], 3.333 µM	0.629 ± 0.035
[6], 10 µM	0.519 ± 0.032
[7], 0.00017 µM	1.11 ± 0.012
[7], 0.00051 µM	1.1 ± 0.043
[7], 0.00152 µM	1.09 ± 0.022
[7], 0.00457 µM	1.08 ± 0.035
[7], 0.01372 µM	1.04 ± 0.022
[7], 0.04115 µM	1.04 ± 0.036
[7], 0.1235 µM	1.05 ± 0.033
[7], 0.3704 µM	1.07 ± 0.025
[7], 1.111 µM	1.03 ± 0.025
[7], 3.333 µM	1.02 ± 0.022
[7], 10 µM	1.06 ± 0.038
[8], 0.00017 µM	1.08 ± 0.03
[8], 0.00051 µM	1.16 ± 0.045
[8], 0.00152 µM	1.19 ± 0.046
[8], 0.00457 µM	1.14 ± 0.062
[8], 0.01372 µM	1.15 ± 0.018
[8], 0.04115 µM	1.18 ± 0.071
[8], 0.1235 µM	1.18 ± 0.055
[8], 0.3704 µM	1.21 ± 0.079
[8], 1.111 µM	1.24 ± 0.055
[8], 3.333 µM	1.16 ± 0.1
[8], 10 µM	1.12 ± 0.056
[9], 0.00017 µM	0.985 ± 0.018
[9], 0.00051 µM	1 ± 0.014
[9], 0.00152 µM	1.03 ± 0.043
[9], 0.00457 µM	1.002 ± 0.0085
[9], 0.01372 µM	0.978 ± 0.02
[9], 0.04115 µM	0.989 ± 0.033
[9], 0.1235 µM	1.02 ± 0.028
[9], 0.3704 µM	1.01 ± 0.012
[9], 1.111 µM	0.985 ± 0.037
[9], 3.333 µM	0.983 ± 0.03
[9], 10 µM	0.996 ± 0.028
[10], 0.00017 µM	1.09 ± 0.029
[10], 0.00051 µM	1.1 ± 0.051
[10], 0.00152 µM	1.11 ± 0.049
[10], 0.00457 µM	1.1 ± 0.033
[10], 0.01372 µM	1.1 ± 0.059
[10], 0.04115 µM	1.09 ± 0.04
[10], 0.1235 µM	1.09 ± 0.026
[10], 0.3704 µM	1.08 ± 0.029
[10], 1.111 µM	1.09 ± 0.061
[10], 3.333 µM	1.04 ± 0.033
[10], 10 µM	0.818 ± 0.04
[11], 0.00017 µM	1.1 ± 0.034
[11], 0.00051 µM	1.083 ± 0.0073
[11], 0.00152 µM	1.07 ± 0.043
[11], 0.00457 µM	1.06 ± 0.013
[11], 0.01372 µM	1.063 ± 0.0078
[11], 0.04115 µM	1.06 ± 0.046
[11], 0.1235 µM	1.04 ± 0.035
[11], 0.3704 µM	1.0633 ± 0.00028
[11], 1.111 µM	1.04 ± 0.044
[11], 3.333 µM	1.037 ± 0.0079
[11], 10 µM	1.05 ± 0.025
[12], 0.00017 µM	1.09 ± 0.025
[12], 0.00051 µM	1.1 ± 0.046
[12], 0.00152 µM	1.099 ± 0.0076
[12], 0.00457 µM	1.11 ± 0.021
[12], 0.01372 µM	1.1 ± 0.033
[12], 0.04115 µM	1.08 ± 0.017
[12], 0.1235 µM	1.067 ± 0.0078
[12], 0.3704 µM	1.07 ± 0.036
[12], 1.111 µM	1.03 ± 0.037
[12], 3.333 µM	0.984 ± 0.016
[12], 10 µM	0.496 ± 0.058
